In patent US10814013B2, “Efficient synthesis of chelators for nuclear imaging and radiotherapy: compositions and applications” (The Board of Regents of the University of Texas System, priority 2006, dated 2020):

Columns and labels:
[1] = system: tumor cells; assay: Cellular uptake of ^99mTc-EC-G in tumor cells; type: cell-based
Procedure: (§1) To further validate EC-G biological activity, in vitro cell culture assays were performed. Briefly, the cellular uptake was determined in tumor cells (50,000 cells/well) incubated with ^99mTc-EC-G (2 μCi/well) at various time intervals. […] There was a 10-15% decrease in cellular uptake using ^99mTc-EC-G after 2-4 weeks. The useful life of EC-G in water appears to be 17.26 days.

[2] = In vitro stability of EC-G dissolved in water; type: physicochemical
Procedure: as §1

[3] = In vivo imaging studies of EC-G; conditions: comparison of aqueous and organic synthesized EC-G
[4] = system: New Zealand white rabbit; assay: PET imaging in a New Zealand white rabbit; type: in vivo; conditions: PET coronal images 45 minutes after injection of 0.66 mCi
Procedure: The numbers are heart/upper mediastinum (H/UM) count density (count/pixel) ratios at 15-45 minutes. […] A rabbit was administered ^68Ga-EC-trimethyl lysine (EC-TML). PET coronal images were acquired at 45 minutes after injection of 0.66 mCi of ^68Ga-EC-TML (dorsal to ventral order).

[5] = system: human lymphoma cells; assay: [^3H]Thymidine incorporation assay using Re-EC-G and a lymphoma cell line; type: cell-based; conditions: in vitro cell culture, dose response curve (FIG. 3)

N,N′-ethylenedicysteine-glucosamine [EC-G]
in vitro uptake, aqueous versus organic synthesized EC-G ([1]; comparison of aqueous and organic synthesized EC-G): no marked difference
cellular uptake, raw (unpurified) EC-G versus prep-HPLC purified EC-G ([1]; tumor cells 50,000 cells/well, ^99mTc-EC-G 2 μCi/well, various time intervals (FIG. 4)): no marked difference
useful life of EC-G in water [2]: 17.26 days
in vivo imaging, EC-G from aqueous versus organic synthesis [3]: no marked difference

^68Ga-EC-trimethyl lysine [^68Ga-EC-TML]
uptake in the heart [4]: High uptake

rhenium-ethylenedicysteine-glucosamine [Re-EC-G]
activity against human lymphoma cells [5]: effective
